Experimental data: patent USRE39591E1, “6-O-substituted ketolides having antibacterial activity” (Abbott Laboratories, priority 1996, dated 2007)
≈ marks a conversion by molar mass, not a printed value.

System: up to 32 different microorganisms
Assay: in vitro antibacterial activity (MIC), agar dilution on Brain Heart Infusion (BHI) agar with Steers replicator
Assay type: cell-based
Conditions: unit assumed
Protocol: Representative compounds of the present invention were assayed in vitro for antibacterial activity as follows: Twelve petri dishes containing successive aqueous dilutions of the test compound mixed with 10 mL of sterilized Brain Heart Infusion (BHI) agar (Difco 0148-01-5) were prepared. Each plate was inoculated with 1:100 (or 1:10 for slow-growing strains, such as Micrococcus and Streptococcus) dilutions of up to 32 different microorganisms, using a Steers replicator block. The inoculated plates were incubated at 35°-37° C. for 20 to 24 hours. In addition, a control plate, using BHI agar containing no test compound, was prepared and incubated at the beginning and end of each test.
An additional plate containing a compound having known susceptibility patterns for the organisms being tested and belonging to the same antibiotic class as the test compound was also prepared and incubated as a further control, as well as to provide test-to-test comparability. Erythromycin A was used for this purpose.
After incubation, each plate was visually inspected. The minimum inhibitory concentration (MIC) was defined as the lowest concentration of drug yielding no growth, a slight haze, or sparsely isolated colonies on the inoculum spot as compared to the growth control.

[1] = Candida albicans CCH 442 (code TT)
[2] = Enterococcus faecism ATCC 8043 (code II)
[3] = Escherichia coli DC-2 (code SS)
[4] = Escherichia coli JUHL (code QQ)
[5] = Micrococcus luteus ATCC 4698 (code PP)
[6] = Micrococcus luteus ATCC 9341 (code OO)
[7] = Mycobacterium smegmatis ATCC 114 (code UU)
[8] = Nocardia Asteroides ATCC9970 (code VV)
[9] = Staphylococcus aureus 1775 (code GG)
[10] = Staphylococcus aureus A-5278 (code CC)
[11] = Staphylococcus aureus ATCC 6538P (code AA)
[12] = Staphylococcus aureus CMX 553 (code FF)
[13] = Staphylococcus aureus CMX 642A (code DD)
[14] = Staphylococcus aureus NCTC10649M (code EE)
[15] = Staphylococcus epidermidis 3519 (code HH)
[16] = Streptococcus agalactiae CMX 508 (code KK)
[17] = Streptococcus bovis A-5169 (code JJ)
[18] = Streptococcus pyogenes 930 (code MM)
[19] = Streptococcus pyogenes EES61 (code LL)
[20] = Streptococcus pyogenes PIU 2548 (code NN)

Question: How did the MIC (organism code AA) turn out when `CCC(=O)OC1C(OC2C(C)C(=O)C(C)C(=O)OC(CC)C3(C)OC(=O)NC3C(C)C(=O)C(C)CC2(C)OCC=Cc2cnc3ccccc3c2)OC(C)CC1N(C)C` (stereo not drawn) [Example 244, Compound of Formula (III): R^c is propanoyl, L is CO, T is NH, R is —CH2CH═CH(3-quinolyl)] was run?
Answer: The MIC was 0.1 µg/mL.

Question: And the MIC (organism code BB)?
Answer: Its MIC is 0.2 µg/mL.

Question: What about the MIC (organism code CC) of the same compound?
Answer: The MIC was over 100 µg/mL.

Question: And the MIC (organism code DD)?
Answer: Its MIC is 0.2 µg/mL.

Question: What about the MIC (organism code EE) of the same compound?
Answer: Its MIC is 0.2 µg/mL.

Question: What about the MIC (organism code FF) of the same compound?
Answer: The MIC was 0.1 µg/mL.

Question: What about the MIC (organism code GG) of the same compound?
Answer: Its MIC is over 100 µg/mL.

Question: What about the MIC (organism code HH) of the same compound?
Answer: The MIC was 0.2 µg/mL.

Question: What about the MIC (organism code II) of the same compound?
Answer: The MIC was 0.05 µg/mL.

Question: What about the MIC (organism code JJ) of the same compound?
Answer: The MIC was 0.01 µg/mL.

Question: And the MIC (organism code KK)?
Answer: The MIC was at most 0.005 µg/mL.

Question: And the MIC (organism code LL)?
Answer: The MIC was 0.02 µg/mL.

Question: What about the MIC (organism code MM) of the same compound?
Answer: Its MIC is 1.56 µg/mL.

Question: And the MIC (organism code NN)?
Answer: Its MIC is 0.2 µg/mL.

Question: What about the MIC (organism code OO) of the same compound?
Answer: Its MIC is 0.02 µg/mL.

Question: And the MIC (organism code PP)?
Answer: The MIC was 0.2 µg/mL.

Question: What about the MIC (organism code QQ) of the same compound?
Answer: The MIC was 50 µg/mL.

Question: What about the MIC (organism code RR) of the same compound?
Answer: The MIC was 0.1 µg/mL.

Question: And the MIC (organism code SS)?
Answer: The MIC was 25 µg/mL.

Question: What about the MIC (organism code TT) of the same compound?
Answer: Its MIC is over 100 µg/mL.

Question: What about the MIC (organism code UU) of the same compound?
Answer: Its MIC is 0.78 µg/mL.

Question: What about the MIC (organism code VV) of the same compound?
Answer: The MIC was 0.02 µg/mL.

Question: What about the MIC (organism code WW) of the same compound?
Answer: Its MIC is 2 µg/mL.

Question: What about the MIC (organism code XX) of the same compound?
Answer: Its MIC is 0.03 µg/mL.

Question: And the MIC (organism code YY)?
Answer: Its MIC is 0.03 µg/mL.

Question: What about the MIC (organism code ZZ) of the same compound?
Answer: Its MIC is 64 µg/mL.

Question: And the MIC (organism code ZZA)?
Answer: Its MIC is 0.5 µg/mL.

Question: Which MIC [1] does the source give for `CCC1OC(=O)C(C)C(=O)C(C)C(OC2OC(C)CC(N(C)C)C2O)C(C)(OCC=Cc2cnc3ccccc3c2)CC(C)C(=O)C(C)C2N(CCN(C)C)C(=O)OC12C` (stereo not drawn) [Example 182, Compound of Formula (IX): L is CO, T is N (CH2CH2N(CH3)2), R is —CH2CH═CH(3-quinolyl)] here?
Answer: The MIC was over 100 µg/mL.

Question: What about the MIC [2] of the same compound?
Answer: Its MIC is 0.1 µg/mL.

Question: And the MIC [3]?
Answer: The MIC was over 100 µg/mL.

Question: What about the MIC [4] of the same compound?
Answer: Its MIC is over 100 µg/mL.

Question: And the MIC (Escherichia coli SS (code RR))?
Answer: Its MIC is 0.39 µg/mL.

Question: And the MIC (Haemophilis influenzae DILL AMP R (code WW))?
Answer: The MIC was 8 µg/mL.

Question: And the MIC [5]?
Answer: Its MIC is 0.39 µg/mL.

Question: And the MIC [6]?
Answer: Its MIC is 0.02 µg/mL.

Question: What about the MIC [7] of the same compound?
Answer: Its MIC is 0.39 µg/mL.

Question: And the MIC [8]?
Answer: Its MIC is 0.2 µg/mL.

Question: What about the MIC [9] of the same compound?
Answer: Its MIC is over 100 µg/mL.

Question: And the MIC (Staphylococcus aureus A5177 (code BB))?
Answer: The MIC was 0.2 µg/mL.

Question: What about the MIC [10] of the same compound?
Answer: Its MIC is over 100 µg/mL.

Question: What about the MIC [11] of the same compound?
Answer: The MIC was 0.39 µg/mL.

Question: What about the MIC [12] of the same compound?
Answer: Its MIC is 0.39 µg/mL.

Question: What about the MIC [13] of the same compound?
Answer: The MIC was 0.39 µg/mL.

Question: What about the MIC [14] of the same compound?
Answer: Its MIC is 0.39 µg/mL.

Question: What about the MIC [15] of the same compound?
Answer: Its MIC is 0.78 µg/mL.

Question: And the MIC (Streptococcus Pneumonia 5649 (code ZZA))?
Answer: The MIC was 2 µg/mL.

Question: What about the MIC (Streptococcus Pneumonia 5979 (code ZZ)) of the same compound?
Answer: The MIC was over 128 µg/mL.

Question: What about the MIC (Streptococcus Pneumonia ATCC6303 (code XX)) of the same compound?
Answer: The MIC was 0.125 µg/mL.

Question: What about the MIC (Streptococcus Pneumonia GYR 1171 (code YY)) of the same compound?
Answer: The MIC was 0.25 µg/mL.

Question: What about the MIC [16] of the same compound?
Answer: Its MIC is 0.05 µg/mL.

Question: What about the MIC [17] of the same compound?
Answer: The MIC was 0.01 µg/mL.

Question: What about the MIC [18] of the same compound?
Answer: The MIC was 100 µg/mL.

Question: What about the MIC [19] of the same compound?
Answer: The MIC was 0.01 µg/mL.

Question: What about the MIC [20] of the same compound?
Answer: Its MIC is 0.39 µg/mL.

Question: How did the MIC (organism code AA) turn out when `CCC1OC(=O)C(C)C(=O)C(C)C(OC2OC(C)CC(N(C)C)C2O)C(C)(OCC=Cc2cnc3ccc(F)cc3c2)CC(C)C(=O)C(C)C2NC(=O)OC12C` (stereo not drawn) [Example 215, R is —CH2CH═CH-(6-fluoro-3-quinolyl)] was run?
Answer: Its MIC is 0.05 µg/mL (≈ 0.0638 µM).

Question: What about the MIC (organism code BB) of the same compound?
Answer: The MIC was 0.1 µg/mL (≈ 0.128 µM).

Question: What about the MIC (organism code CC) of the same compound?
Answer: Its MIC is over 100 µg/mL.

Question: What about the MIC (organism code DD) of the same compound?
Answer: The MIC was 0.1 µg/mL (≈ 0.128 µM).

Question: And the MIC (organism code EE)?
Answer: Its MIC is 0.1 µg/mL (≈ 0.128 µM).

Question: What about the MIC (organism code FF) of the same compound?
Answer: Its MIC is 0.1 µg/mL (≈ 0.128 µM).

Question: And the MIC (organism code GG)?
Answer: The MIC was over 100 µg/mL.

Question: And the MIC (organism code HH)?
Answer: Its MIC is 0.1 µg/mL (≈ 0.128 µM).

Question: What about the MIC (organism code II) of the same compound?
Answer: Its MIC is 0.05 µg/mL (≈ 0.0638 µM).

Question: And the MIC (organism code JJ)?
Answer: Its MIC is 0.01 µg/mL (≈ 0.0128 µM).

Question: And the MIC (organism code KK)?
Answer: Its MIC is 0.01 µg/mL (≈ 0.0128 µM).

Question: What about the MIC (organism code LL) of the same compound?
Answer: Its MIC is 0.01 µg/mL (≈ 0.0128 µM).

Question: What about the MIC (organism code MM) of the same compound?
Answer: The MIC was 0.78 µg/mL (≈ 0.995 µM).

Question: And the MIC (organism code NN)?
Answer: Its MIC is 0.1 µg/mL (≈ 0.128 µM).

Question: What about the MIC (organism code OO) of the same compound?
Answer: Its MIC is 0.01 µg/mL (≈ 0.0128 µM).

Question: And the MIC (organism code PP)?
Answer: The MIC was 0.2 µg/mL (≈ 0.255 µM).

Question: And the MIC (organism code QQ)?
Answer: Its MIC is 25 µg/mL (≈ 31.9 µM).

Question: And the MIC (organism code RR)?
Answer: Its MIC is 0.2 µg/mL (≈ 0.255 µM).

Question: And the MIC (organism code SS)?
Answer: The MIC was over 100 µg/mL.

Question: What about the MIC (organism code TT) of the same compound?
Answer: The MIC was over 100 µg/mL.

Question: And the MIC (organism code UU)?
Answer: The MIC was 0.78 µg/mL (≈ 0.995 µM).

Question: What about the MIC (organism code VV) of the same compound?
Answer: Its MIC is 0.02 µg/mL (≈ 0.0255 µM).

Question: And the MIC (organism code WW)?
Answer: The MIC was 2 µg/mL (≈ 2.55 µM).

Question: What about the MIC (organism code XX) of the same compound?
Answer: Its MIC is 0.015 µg/mL (≈ 0.0191 µM).

Question: What about the MIC (organism code YY) of the same compound?
Answer: The MIC was at most 0.004 µg/mL.

Question: And the MIC (organism code ZZ)?
Answer: Its MIC is 16 µg/mL (≈ 20.4 µM).

Question: And the MIC (organism code ZZA)?
Answer: Its MIC is 0.25 µg/mL (≈ 0.319 µM).

Question: Which results are given for `CCC1OC(=O)C(C)C(=O)C(C)C(OC2OC(C)CC(N(C)C)C2O)C(C)(OCC=Cc2cnc3ccc([N+](=O)[O-])cc3c2)CC(C)C(=O)C(C)C2NC(=O)OC12C` (stereo not drawn) [Example 195, R is —CH2CH═CH-(6-nitroquinolyl)]?
Answer: MIC [1]: > 100 µg/mL; MIC [2]: 0.05 µg/mL (≈ 0.0617 µM); MIC [3]: 50 µg/mL (≈ 61.7 µM); MIC [4]: 50 µg/mL (≈ 61.7 µM); MIC (Escherichia coli SS (code RR)): 0.2 µg/mL (≈ 0.247 µM); MIC [5]: 0.1 µg/mL (≈ 0.123 µM); MIC [6]: 0.01 µg/mL (≈ 0.0123 µM); MIC [7]: 0.39 µg/mL (≈ 0.481 µM); MIC [8]: 0.05 µg/mL (≈ 0.0617 µM); MIC [9]: > 100 µg/mL; MIC [10]: > 100 µg/mL; MIC [11]: 0.05 µg/mL (≈ 0.0617 µM); MIC [12]: 0.05 µg/mL (≈ 0.0617 µM); MIC [13]: 0.05 µg/mL (≈ 0.0617 µM); MIC [14]: 0.05 µg/mL (≈ 0.0617 µM); MIC [15]: 0.05 µg/mL (≈ 0.0617 µM); MIC [16]: 0.05 µg/mL (≈ 0.0617 µM); MIC [17]: 0.01 µg/mL (≈ 0.0123 µM); MIC [18]: 1.56 µg/mL (≈ 1.92 µM); MIC [19]: 0.02 µg/mL (≈ 0.0247 µM); MIC [20]: 0.1 µg/mL (≈ 0.123 µM)
